In US5686417A, “Peptide T and related peptides in the treatment of HTLV-1 myelopathy and multiple sclerosis” (Reed MacFadden, Ltd., priority 1995, dated 1997):

How the values were obtained:
[1] = tested on: multiple sclerosis patients; assay: case treatments of multiple sclerosis (Examples 2-5); format: in vivo, human
Experimental: A person was diagnosed as having MS after presenting with weakness, loss of balance, double vision, and paraesthesia in their right arm. They were treated with prednisone and later with physiotherapy. […] Tone was increased in both lower limbs and they had bilateral ankle clonus. Deep tendon reflexes were 2+ in the arms, 3+ in both knees and ankles and the planter responses were extensor.
They were started on 10 milligram subcutaneous injections of Peptide T daily. […] Their frequency of nocturia was reduced, fine motor control improved, stuttering decreased, their legs were less spastic and they could stand with minimal support.
A person was diagnosed with optic neuritis secondary to multiple sclerosis after presenting with numbness, impaired motor function, and blurred vision (20/300 bilaterally). Their somatic neurological examination was within normal limits. Minor episodes of numbness and impaired speech, balance and co-ordination had occurred over 6 months, as well as headache and loss of vision.
Peptide T therapy was started.
A person with their first multiple sclerosis episode had optic neuritis and complete blindness in the right eye for 2 weeks, numbness in their right leg and then both legs. Their symptoms worsened. […] They had worsening of their ataxia and blurred vision. They were given prednisone 80 milligrams per day. […] The patient complained of oscillopsia. […] Findings were typical of demyelination consistent with MS. […] The tone was increased in their lower limbs and they had non-sustained ankle clonus bilaterally. Their knee jerk was increased on the right compared to the left. Plantar responses were both upgoing. They had decreased position, vibration, light touch and cold sensation in the feet compared to the hands.
About 2 months later the patient was started on Peptide T 10 milligrams subcutaneously daily. […] They experienced improved feelings in their fingers, fine movements of their hands and improved cognitive function.
A person with a history of dizziness, ataxia, episodes of vertigo, impairment of motor function and generalized weakness of the legs was treated with dilantin and admitted to hospital. […] They were reassessed about 2 years later for episodes of dizziness, and complaints of leg spasms. […] Planter response was downgoing and they had upwards gaze vertical nystagmus as previously noted.

[2] = in vivo; cited from earlier work
[3] = tested on: mouse fetal hippocampal neurons; conditions: mouse hippocampal neuronal culture; cited from earlier work
[4] = tested on: protein kinase C; conditions: cited from earlier work
[5] = tested on: rat spinal cord; conditions: spinal administration; cited from earlier work

Compound: NCC(CC(=O)O)c1ccc(Cl)cc1 (centres unmarked) [Lioresal (Baclofen), Baclofen]
- response to earlier treatment ([1]; Example 2, before Peptide T): some improvement

Compound: C[C@@H](N)C(=O)N[C@@H](CO)C(=O)N[C@H](C(=O)N[C@H](C(=O)N[C@H](C(=O)N[C@@H](CC(N)=O)C(=O)N[C@@H](Cc1ccc(O)cc1)C(=O)N[C@H](C(N)=O)[C@@H](C)O)[C@@H](C)O)[C@@H](C)O)[C@@H](C)O [Peptide T, D-Ala-Ser-Thr-Thr-Thr-Asn-Tyr-Thr- Amide]
- exit from the brain [2]: diffusion only

Compound: C[C@]12C=CC(=O)C=C1CC[C@@H]1[C@@H]2C(=O)C[C@@]2(C)[C@H]1CC[C@]2(O)C(=O)CO [prednisone]
- symptomatic response ([1]; Example 4, 150 mg daily, while off Peptide T): minimal symptomatic improvement
- ataxia and some visual problems ([1]; Example 4, 80 milligrams per day): seemed to improve
- response to treatment ([1]; Example 4, first course, dose not stated): some improvement

Compound: vasoactive intestinal peptide [VIP]
- effect on gp120-induced neurotoxicity [3]: completely eliminated
- cellular effects via protein kinase C [4]: regulation of protein kinase C
- analgesia, fail-flick latency test and tail-shock induced vocalization test [5]: produced analgesia
